The results in this text go back to patent US6265423A, “Aromatic polycyclic retinoid-type derivatives, method for preparing same, and use thereof for making pharmaceutical and cosmetic compositions” (priority 1996, dated 2001).

In assay [1] the test system is ZR-75-1 human mammary cancer cells. The assay is described as follows: MTT test, proliferation of ZR-75-1. Particulars: for activity at 100 µM / activity at 1 µM / activity at 0.01 µM: Homo sapiens, 72 h, control = 100%, read-out: level of proliferation; for activity at 100 µM: ZR-75-1, 10^-4 M; for activity at 1 µM: ZR-75-1, 10^-6 M; for activity at 0.01 µM: ZR-75-1, 10^-8 M. In kind it is cell-based. The protocol:
(§1) The cells that were cultured came from the ATCC (American Type Culture Collection).
(§2) The cellular lines are kept in culture in a monolayer at 37° C. in closed culture dishes (Nunc. Gibco BRL, Life Technologies, Belgium) containing the minimum essential medium (MEM, Gibco) supplemented with 5% of Foetal Calf Serum, (FCS, Gibco), 0.6 mg/ml of glutamine (Gibco) and a mixture of 200 IU/mi of penicillin (Gibco), 200 μg/ml of streptomycin (Gibco) and 0.1 mg/ml of gentamycin (Gibco). The foetal calf serum is decomplemented for 1 hour at 56° C.
(§3) This test is based on the mitochondrial reduction by living metabolically active cells of the MTT (3-(4,5-dimethylthiazol-2-yl)-2,5-diphenyltetrazolium bromide) of yellowish colour into a blue coloured product, formazan. The quantity of formazan obtained is directly proportional to the number of living cells. After incubation of the cells for 24 hours in microplates with 96 flat bottomed wells, the culture medium is replaced by 100 μl of fresh culture medium containing the drug to be tested.
(§4) The microplates are then incubated for 3 hours at 37° C. and centrifuged for 10 minutes at 400 g (GPR centrifuge, Beckman). The MTT solution is replaced by 100 μl of dimethylsulphoxide (Merck). The microplates are agitated (Vari-Shaker, Dynatech) for 10 minutes.
(§5) In the microplates, the control cells like the treated cells were incubated in a medium without the compounds to be tested for 24 hours. The control cells are incubated in a medium without a drug throughout the whole experiment, while the treated cells are incubated in different media. These media contain the molecule to be tested at various concentrations: 10^-8 M, 10^-6 M and 10^-4 M. All the tests are carried out in 6 duplicates.
(§6) The statistical comparisons are carried out according to the Fisher Test:
(§7) The mean optical density measured for each experimental condition is expressed as a percentage in relation to the laid down control condition being equal to 100%.

For assay [2], the system named is A-427 human pulmonary cancer cells. The assay is described as follows: MTT test, proliferation of A-427. To be noted: for activity at 0.01 µM / activity at 1 µM / activity at 100 µM: Homo sapiens, A-427, 72 h, read-out: level of proliferation; for effect on cellular increase, A-427 (in words): MTT test.
Assay [3] has as its system A549 human pulmonary cancer cells. As to the kind of experiment: MTT test, proliferation of A549. In kind it is cell-based. Particulars: Homo sapiens, 72 h, control = 100%, read-out: level of proliferation; for activity at 100 µM: A549, 10^-4 M; for activity at 1 µM: A549, 10^-6 M; for activity at 0.01 µM: A549, 10^-8 M.
Assay [4] concerns T-47D human mammary cancer cells. The assay is described as follows: MTT test, proliferation of T-47D. In kind it is cell-based. To be noted: for activity at 100 µM / activity at 1 µM / activity at 0.01 µM: Homo sapiens, T47D, T-47D, 72 h, control = 100%, read-out: level of proliferation; for activity at 100 µM: 10^-4 M; for activity at 1 µM: 10^-6 M; for activity at 0.01 µM: 10^-8 M. As to the method: as §1, §2, §3, §4, §5, §6, §7

As to `Cc1cc2c(cc1/C=C(\c1ccc(-c3nnn[nH]3)cc1)C(F)(F)F)C(C)(C)CCC2(C)C` [CB63237, (E) 5-[4-[1-trifluoromethyl-2-(5,6,7,8-tetrahydro-3,5,5,8,8-pentamethyl-2-naphthalenyl)-1-ethenyl]phenyl]-1H-tetrazole], the activity at 100 µM in assay [1] was found to be 0%; in assay [2] it was 4.1%; in assay [3], 2.1%; in assay [4], 4.1%. Further, the activity at 1 µM came out at 106% in assay [1], 148% in assay [2], 140% in assay [3] and 125% in assay [4]. The activity at 0.01 µM in assay [1] is 86.5%; in assay [2], 88.1%; in assay [3] it was 124%; in assay [4], 120%.
For `C/C(=C/c1ccc2c(c1)C(C)(C)CCS2)c1ccc(C(=O)O)cc1` [CB41666], the activity at 100 µM in assay [1] came to 48.5%; in assay [2], 7.6%; in assay [3] it was 63.2%; in assay [4] it was 28%. Further, the activity at 1 µM in assay [1] was 115%; in assay [2], 91.2%; in assay [3], 89.9%; in assay [4], 69.5%. Also, the activity at 0.01 µM in assay [1] is 112%; in assay [2], 83%; in assay [3], 94.5%; in assay [4] it was 88.7%.
For `C/C(=C\c1cc2c(cc1C)C(C)(C)CCC2(C)C)c1ccc(-c2nnn[nH]2)cc1` [CB40747, (E) 5-[4-[1-(5,6,7,8-tetrahydro-3,5,5,8,8-pentamethyl-2-naphthalenyl)-2-propenyl]phenyl]-1H-tetrazole], in assay [1], the activity at 100 µM came out at 0%, the activity at 1 µM came out at 107% and the activity at 0.01 µM stood at 111%. Moreover, in assay [2], the activity at 0.01 µM was 100%; the activity at 1 µM came out at 83.7%; the activity at 100 µM amounted to 1.7%; the “effect on cellular increase, A-427 (in words)” value is “a stimulation of the cellular increase”. Moreover, in assay [3], the activity at 100 µM is 0%, the activity at 1 µM was 192% and the activity at 0.01 µM came to 176%. In addition, in assay [4], the activity at 100 µM turned out to be 0%, the activity at 1 µM was 85.2% and the activity at 0.01 µM is 106%.
For `C/C(=C/c1ccc2c(c1)C(C)(C)CCS2(=O)=O)c1ccc(C(=O)O)cc1` [CB72484], the activity at 100 µM in assay [1] stood at 129%; in assay [2] it was 182%; in assay [3], 129%; in assay [4], 99%. In addition, the activity at 1 µM in assay [1] was 138%; in assay [2], 130%; in assay [3], 111%; in assay [4], 128%. Also, the activity at 0.01 µM in assay [1] stood at 145%; in assay [2], 131%; in assay [3], 114%; in assay [4], 129%.
As for `C=C(c1ccc(C(=O)Nc2ccc(O)cc2)cc1)c1cc2c(cc1C)C(C)(C)CCC2(C)C` [CB65801], in assay [1], the activity at 100 µM worked out at 0.2%, the activity at 1 µM was 93.4% and the activity at 0.01 µM was 138%. In addition, in assay [4], the activity at 100 µM was found to be 1.6%, the activity at 1 µM was determined as 62.7% and the activity at 0.01 µM is 92.8%.
With `C/C(=C/c1ccc2c(c1)C(C)(C)CCS2(=O)=O)c1ccc(-c2nnn[nH]2)cc1` [CB39122, (Z) 5-[4-[1-(3',4'-dihydro-4',4'-dimethyl-1',1'-dioxide-2'H-1'-benzothiopyran-6'-yl)-2-propenyl]phenyl]-1H-tetrazole], the activity at 100 µM in assay [1] is 74.2%; in assay [2] it was 27.1%; in assay [3] it was 84.8%; in assay [4], 57.1%. Besides, the activity at 1 µM in assay [1] was determined as 97.3%; in assay [2], 96.5%; in assay [3], 98%; in assay [4], 100%. The activity at 0.01 µM in assay [1] was determined as 102%; in assay [2], 93.9%; in assay [3] it was 96.2%; in assay [4], 102%.
On to `C/C(=C\c1ccc2c(c1)C(C)(C)CCS2(=O)=O)c1ccc(C(=O)O)cc1` [CB39356], for which, in assay [1], the activity at 100 µM was 59.6%, the activity at 1 µM was 148% and the activity at 0.01 µM turned out to be 133%. In addition, the “effect on cellular increase, ZR-75-1 (in words)” value in assay [1] (MTT test) is on record as “do not influence the cellular increase of the lineages under consideration”. Further, in assay [2], the activity at 0.01 µM worked out at 124%; the activity at 1 µM is 129%; the activity at 100 µM is 70.7%; the “effect on cellular increase, A-427 (in words)” value is recorded as “a stimulation of the cellular increase”. Further, in assay [3], the activity at 100 µM is 72%, the activity at 1 µM was 105% and the activity at 0.01 µM came to 105%. For the same compound, in assay [4], the activity at 100 µM was 36.4%, the activity at 1 µM is 108% and the activity at 0.01 µM stood at 86%. Also, in assay [4] (MTT test), the “effect on cellular increase, T-47D (in words)” value was “do not influence the cellular increase of the lineages under consideration”.
With `C/C(=C/c1cc2c(cc1C)C(C)(C)CCC2(C)C)c1ccc(C(=O)O)cc1` [CB32706], the activity at 100 µM in assay [1] was 0.7%; in assay [2] it was 0.8%; in assay [3] it was 6%; in assay [4], 0%. Moreover, the activity at 1 µM in assay [1] was found to be 93.1%; in assay [2], 99.6%; in assay [3] it was 103%; in assay [4] it was 88.6%. The activity at 0.01 µM in assay [1] was found to be 95%; in assay [2], 103%; in assay [3], 101%; in assay [4] it was 94%.
In the case of `Cc1cc2c(cc1C(=O)c1ccc(C(=O)Nc3ccc(O)cc3)cc1)C(C)(C)CCC2(C)C` [CB81616], in assay [1], the activity at 100 µM came out at 0%, the activity at 1 µM stood at 134% and the activity at 0.01 µM is 136%. In assay [4], the activity at 100 µM stood at 1.4%, the activity at 1 µM came out at 96.7% and the activity at 0.01 µM came to 103%.
In the case of `Cc1cc2c(cc1/C=C(\c1ccc(C(=O)O)cc1)C(F)(F)F)C(C)(C)CCC2(C)C` [CB62899, (E) 4-[1-trifluoromethyl-2-(5,6,7,8-tetrahydro-3,5,5,8,8-pentamethyl-2-naphthalenyl)-1-ethenyl]benzoic acid], the activity at 100 µM stood at 0.4% in assay [1], 0% in assay [2], 0.45% in assay [3] and 1.7% in assay [4]. In addition, the activity at 1 µM was found to be 112% in assay [1], 124% in assay [2], 119% in assay [3] and 73.7% in assay [4]. Further, the activity at 0.01 µM turned out to be 112% in assay [1], 115% in assay [2], 131% in assay [3] and 128% in assay [4].
As for `COc1cc2c(cc1/C(C)=C/c1ccc(C(=O)O)cc1)C(C)(C)CCS2(=O)=O` [CB77787], the activity at 100 µM in assay [1] was 93.5%; in assay [2] it was 163%; in assay [3], 103%; in assay [4], 86.3%. Further, the activity at 1 µM was found to be 113% in assay [1], 110% in assay [2], 125% in assay [3] and 120% in assay [4]. For the same compound, the activity at 0.01 µM in assay [1] is 114%; in assay [2], 120%; in assay [3], 118%; in assay [4], 129%.
Turning to `CCCCCCCOc1cc2c(cc1/C(C)=C/c1ccc(C(=O)O)cc1)C(C)(C)CCS2(=O)=O` [CB65757], the activity at 100 µM worked out at 1% in assay [1], 0% in assay [2], 0% in assay [3] and 0% in assay [4]. In addition, the activity at 1 µM in assay [1] is 118%; in assay [2], 146%; in assay [3] it was 111%; in assay [4], 126%. In addition, the activity at 0.01 µM in assay [1] was 116%; in assay [2], 106%; in assay [3] it was 108%; in assay [4] it was 124%.
